# Experimental data reported in ChEMBL document CHEMBL5356952, “Design, synthesis, and biological evaluation of deuterated indolepropionic acid derivatives as novel long-acting pan PPARα/γ/δ agonists” (Bioorg Med Chem, 2023).
# Tests used:
# [1] = Metabolic stability in rat liver microsomes assessed as half life preincubated for 5 mins followed by NADPH addition and measured upto 60 mins by LC-MS analysis; format: ADME, Microsome; conditions: time < 65 min
# [2] = target: T1, Peroxisome proliferator-activated receptor delta (Homo sapiens, UniProt Q03181); experiment: Agonist activity at PPARdelta (unknown origin)
# T1 sequence (Q03181 whole entry): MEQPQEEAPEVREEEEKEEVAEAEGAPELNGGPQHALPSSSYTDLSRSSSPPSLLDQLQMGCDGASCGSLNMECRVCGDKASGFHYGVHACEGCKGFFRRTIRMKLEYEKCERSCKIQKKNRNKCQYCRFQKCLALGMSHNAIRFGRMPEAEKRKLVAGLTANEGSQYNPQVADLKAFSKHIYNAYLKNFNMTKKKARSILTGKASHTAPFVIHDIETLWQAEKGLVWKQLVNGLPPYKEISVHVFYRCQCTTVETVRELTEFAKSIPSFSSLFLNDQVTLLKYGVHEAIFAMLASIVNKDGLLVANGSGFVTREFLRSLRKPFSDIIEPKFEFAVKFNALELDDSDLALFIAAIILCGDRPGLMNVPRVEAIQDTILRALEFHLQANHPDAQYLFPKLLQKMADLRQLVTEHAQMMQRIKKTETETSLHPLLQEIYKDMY
# [3] = target: T2, Peroxisome proliferator-activated receptor alpha (Homo sapiens, UniProt Q07869); experiment: Agonist activity at PPARalpha (unknown origin)
# T2 sequence (Q07869 whole entry): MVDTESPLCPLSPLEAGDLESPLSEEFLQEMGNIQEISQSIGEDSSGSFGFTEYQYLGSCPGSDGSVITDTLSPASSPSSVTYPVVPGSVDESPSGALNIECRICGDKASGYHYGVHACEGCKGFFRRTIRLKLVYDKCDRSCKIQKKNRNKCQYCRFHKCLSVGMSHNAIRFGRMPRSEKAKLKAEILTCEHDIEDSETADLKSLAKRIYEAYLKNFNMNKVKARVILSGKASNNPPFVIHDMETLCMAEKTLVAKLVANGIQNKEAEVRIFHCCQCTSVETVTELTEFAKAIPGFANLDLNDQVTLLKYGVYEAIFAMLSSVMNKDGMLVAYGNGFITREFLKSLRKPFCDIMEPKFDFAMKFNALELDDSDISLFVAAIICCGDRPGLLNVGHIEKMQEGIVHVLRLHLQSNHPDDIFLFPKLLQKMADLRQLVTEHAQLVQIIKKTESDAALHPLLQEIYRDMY
# [4] = target: T3, Peroxisome proliferator-activated receptor gamma (Homo sapiens, UniProt P37231); experiment: Agonist activity at PPARgamma (unknown origin)
# T3 sequence (P37231 whole entry): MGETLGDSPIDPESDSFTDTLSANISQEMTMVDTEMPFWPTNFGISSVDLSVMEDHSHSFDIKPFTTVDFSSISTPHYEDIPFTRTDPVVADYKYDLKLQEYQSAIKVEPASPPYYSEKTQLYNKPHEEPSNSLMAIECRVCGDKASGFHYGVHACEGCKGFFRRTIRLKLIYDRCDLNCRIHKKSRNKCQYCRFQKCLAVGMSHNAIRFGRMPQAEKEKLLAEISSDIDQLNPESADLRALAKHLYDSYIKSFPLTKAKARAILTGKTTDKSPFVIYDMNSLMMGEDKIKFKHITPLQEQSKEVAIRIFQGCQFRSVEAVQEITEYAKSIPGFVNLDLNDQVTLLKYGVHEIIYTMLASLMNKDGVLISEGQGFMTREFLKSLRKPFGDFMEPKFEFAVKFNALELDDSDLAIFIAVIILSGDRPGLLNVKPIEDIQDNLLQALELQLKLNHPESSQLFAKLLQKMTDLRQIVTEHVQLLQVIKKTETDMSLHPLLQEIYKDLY
# [5] = Half life in rat; format: ADME; conditions: in vivo
SMILES,half-life [1],EC50 [2],EC50 [3],EC50 [4],half-life [5]
[2H]C([2H])(Cc1cn(S(=O)(=O)c2ccc(OC)cc2)c2ccc(OC)cc12)C(=O)O,1.16 h,0.85 µM,0.98 µM,–,–
[2H]C([2H])(Cc1cn(S(=O)(=O)c2ccc(OC)cc2)c2ccc(C3CC3)cc12)C(=O)O,1.14 h,2.97 µM,2.52 µM,–,–
COc1ccc(S(=O)(=O)n2cc(CCC(=O)O)c3cc(OC)ccc32)cc1 [INDEGLITAZAR],0.775 h,0.94 µM,1.15 µM,–,1.4 h

# Further lines, results first:
half-life [1],EC50 [2],EC50 [3],EC50 [4],half-life [5],SMILES
1.12 h,–,–,–,–,[2H]C([2H])(Cc1cn(S(=O)(=O)c2ccc3c(c2)CCO3)c2ccc(OC)cc12)C(=O)O
1.06 h,–,–,–,–,[2H]C([2H])(Cc1cn(S(=O)(=O)c2ccc(C3CC3)cc2)c2ccc(OC)cc12)C(=O)O
1.23 h,–,1.26 µM,0.95 µM,–,[2H]C([2H])(Cc1cn(S(=O)(=O)c2ccc(OC(F)(F)F)cc2)c2ccc(OC)cc12)C(=O)O
